# Results: US10457665B2, “1,4-di-(4-methylthiophenyl)-3-phtaloylazetidine-2-one and the derivatives thereof” (Universite De Nantes, priority 2015, dated 2019)
# Tested on: CB1R expression in liver explants of ob/ob mice
# Assay: Liver explant culture, CB1R gene expression (RT-PCR)
# Assay type: cell-based, mouse
# Conditions: liver explants of ob/ob mice treated 21 h, FIG. 1
# Procedure: The liver of the mice was perfused in situ, under sodium pentobarbital anaesthesia (50 mg/kg), with Hank's medium (pH 7.4) saturated with oxygen. Next, the liver was sectioned using a Brendel/Vitron slicer (Tucson, Ariz., USA) in the same medium. The liver sections (about 200 μm) were then incubated 21 h in William's medium E (WME) oxygenated and supplemented with deactivated foetal calf serum (10%) and antibiotic/antifungal cocktail (1%) under controlled atmosphere (5% CO2), to which is added either the antagonist to be tested or vehicle.
# Total messenger RNA (mRNA) extraction was carried out with Tri Reagent (Euromedex, France) and consecutive synthesis of complementary DNA (cDNA) was carried out from 1 μg of mRNA with the Bio-Rad iScripttm Reverse Transcription super mix kit (Bio-Rad, France).
# Gene expression was evaluated by semi-quantitative real-time reverse transcription-polymerase chain reaction (RT-PCR). The primers used were designed using the Primer3Plus software (http://www.bioinformatics.nl/cgi-bin/primer3plus/primer3plus.cgi) and were synthesized by MWG-Biotech (TATA box-binding protein: Sense […], antisense […]; CB1R: Sense […], antisense aaccccacccagtttgaac). Semi-quantification of gene expression was obtained by taking into account the efficacy of each PCR and after standardization with the reporter gene, TATA box-binding protein.
compound,measurement,value
"CSc1ccc(C2C(N3C(=O)c4ccccc4C3=O)C(=O)N2c2ccc(SC)cc2)cc1 (stereo not drawn) [JM-00.266, trans-1,4-di-(4-methylthiophenyl)-3-N-phthaloyl-azetidine-2-one]",hepatic CB1R expression,significant decrease
